# Reference: patent US10988477B2 (Merck Patent GmbH, priority 2018, dated 2021)
# Assays:
# [1] = target: GCN2 kinase (Homo sapiens, UniProt Q9P2K8); assay: GCN2 enzyme inhibition assay (Transcreener ADP2 fluorescence polarization); assay type: biochemical; conditions: compounds of Formula II; 280 μM ATP, 4 nM GCN2 kinase
# Method in brief: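 Run at 25 °C in 25 mM Tris-HCl pH 7.5, 50 mM NaCl, 10 mM MgCl2, 1 mM DTT with 4 nM GCN2, 280 μM ATP and 200 μM (RS)7 peptide; compound (0–8 μM final) preincubated 10 min, reaction 1 h. ADP read by antibody/tracer FP; IC50 and Ki(app) from tight-binding fit.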
# [2] = target: intracellular GCN2 (phosphorylation of the GCN2 substrate eIF2α) (Homo sapiens, UniProt Q9P2K8); assay: GCN2 cellular inhibition assay (AlphaScreen SureFire P-eIF2α Ser51, borrelidin-treated U2OS cells); assay type: cell-based; conditions: compounds of Formula II; biomarker assay, phosphorylated eIF2α Ser51 in borrelidin-treated U2OS cells
# Sequence of intracellular GCN2 (phosphorylation of the GCN2 substrate eIF2α) (Q9P2K8 whole entry): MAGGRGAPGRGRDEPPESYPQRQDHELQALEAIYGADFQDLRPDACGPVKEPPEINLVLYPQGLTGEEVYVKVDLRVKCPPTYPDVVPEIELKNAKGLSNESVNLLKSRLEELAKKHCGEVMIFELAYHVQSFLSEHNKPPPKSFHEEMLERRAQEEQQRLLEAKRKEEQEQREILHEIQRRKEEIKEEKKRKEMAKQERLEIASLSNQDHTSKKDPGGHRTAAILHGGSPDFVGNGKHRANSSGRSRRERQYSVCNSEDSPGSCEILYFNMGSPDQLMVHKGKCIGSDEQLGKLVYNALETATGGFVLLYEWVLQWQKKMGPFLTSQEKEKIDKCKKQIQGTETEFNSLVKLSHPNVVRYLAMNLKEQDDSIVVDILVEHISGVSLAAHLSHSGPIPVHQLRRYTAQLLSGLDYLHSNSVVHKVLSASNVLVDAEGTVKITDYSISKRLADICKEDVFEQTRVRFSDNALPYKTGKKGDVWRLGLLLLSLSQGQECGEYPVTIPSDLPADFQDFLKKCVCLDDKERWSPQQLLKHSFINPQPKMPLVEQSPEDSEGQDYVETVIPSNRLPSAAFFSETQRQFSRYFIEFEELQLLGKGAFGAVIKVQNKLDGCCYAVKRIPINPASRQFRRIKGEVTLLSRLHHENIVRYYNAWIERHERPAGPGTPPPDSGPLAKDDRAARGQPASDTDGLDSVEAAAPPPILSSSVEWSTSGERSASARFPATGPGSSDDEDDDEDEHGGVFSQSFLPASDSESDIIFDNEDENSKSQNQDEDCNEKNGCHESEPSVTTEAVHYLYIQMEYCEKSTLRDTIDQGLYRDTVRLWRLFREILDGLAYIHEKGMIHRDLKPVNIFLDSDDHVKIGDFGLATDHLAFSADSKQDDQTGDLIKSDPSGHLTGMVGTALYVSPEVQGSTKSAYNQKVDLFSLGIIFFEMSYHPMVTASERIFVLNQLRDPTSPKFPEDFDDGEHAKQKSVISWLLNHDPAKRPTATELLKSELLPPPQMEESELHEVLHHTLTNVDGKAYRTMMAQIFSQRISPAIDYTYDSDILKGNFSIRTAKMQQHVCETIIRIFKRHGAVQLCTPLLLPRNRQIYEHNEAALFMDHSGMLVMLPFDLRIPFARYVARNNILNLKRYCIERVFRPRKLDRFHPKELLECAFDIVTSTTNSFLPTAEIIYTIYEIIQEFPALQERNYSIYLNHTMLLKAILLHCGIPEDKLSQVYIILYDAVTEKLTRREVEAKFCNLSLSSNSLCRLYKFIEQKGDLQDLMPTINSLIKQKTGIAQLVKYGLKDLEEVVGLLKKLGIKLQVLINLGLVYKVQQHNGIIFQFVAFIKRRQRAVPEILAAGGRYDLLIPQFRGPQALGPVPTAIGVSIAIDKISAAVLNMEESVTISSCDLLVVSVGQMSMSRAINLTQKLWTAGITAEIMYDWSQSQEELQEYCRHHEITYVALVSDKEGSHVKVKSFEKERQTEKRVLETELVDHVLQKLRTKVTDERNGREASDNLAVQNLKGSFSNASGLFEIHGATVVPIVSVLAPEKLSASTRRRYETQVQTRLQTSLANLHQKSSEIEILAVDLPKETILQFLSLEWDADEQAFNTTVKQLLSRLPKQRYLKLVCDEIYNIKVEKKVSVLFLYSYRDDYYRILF
# Method in brief: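 U2OS, overnight attach; cpd 4-fold serial dil. from 40 μM final; borrelidin 10 μM, 1 h 37 °C/5% CO2; lyse; AlphaScreen P-eIF2α Ser51 (acceptor 2 h, donor overnight, RT, dark); % inhib. vs borrelidin-only.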
# Sequence of GCN2 kinase (Q9P2K8 whole entry): as above
Structure (SMILES),Ki [1],IC50 [2]
"NC(=O)NCC1CCCN(c2cc(-c3cnc4ccc(C(F)F)nn34)ncn2)C1 (stereo not drawn) [II-215, 1-((1-(6-(6-(Difluoromethyl)imidazo[1,2-b]pyridazin-3-yl)pyrimidin-4-yl)piperidin-3-yl)methyl)urea]",10 to 1000 nM,500 to 5000 nM
"O=C(NC1CC1)NC1CCN(c2cc(-c3cnc4ccc(C(F)F)nn34)ncn2)C1 (stereo not drawn) [II-216, 1-Cyclopropyl-3-(1-(6-(6-(difluoromethyl)imidazo[1,2-b]pyridazin-3-yl)pyrimidin-4-yl)pyrrolidin-3-yl)urea]",10 to 1000 nM,> 5000 nM
"FC(F)c1ccc2ncc(-c3cc(N4CCC(Cc5ccn[nH]5)CC4)ncn3)n2n1 [II-217, 3-(6-(4-((1H-Pyrazol-5-yl)methyl)piperidin-1-yl)pyrimidin-4-yl)-6-(difluoromethyl)imidazo[1,2-b]pyridazine]",10 to 1000 nM,500 to 5000 nM
"CC(=O)Nc1cccc2c1CCN(c1cc(-c3cnc4ccc(C(F)F)nn34)ncn1)C2 [II-218, N-(2-(6-(6-(Difluoromethyl)imidazo[1,2-b]pyridazin-3-yl)pyrimidin-4-yl)-1,2,3,4-tetrahydroisoquinolin-5-yl)acetamide]",10 to 1000 nM,500 to 5000 nM
"NS(=O)(=O)CC1CCCN(c2cc(-c3cnc4ccc(C(F)F)nn34)ncn2)C1 (stereo not drawn) [II-219, (1-(6-(6-(Difluoromethyl)imidazo[1,2-b]pyridazin-3-yl)pyrimidin-4-yl)piperidin-3-yl)methanesulfonamide]",< 10 nM,< 500 nM
"CC1C(CNS(C)(=O)=O)CCCN1c1cc(-c2cnc3ccc(C(F)F)nn23)ncn1 (stereo not drawn) [II-221, N-((1-(6-(6-(Difluoromethyl)imidazo[1,2-b]pyridazin-3-yl)pyrimidin-4-yl)-2-methylpiperidin-3-yl)methyl)methanesulfonamide]",< 10 nM,< 500 nM
"CC(=O)N1CCCC(c2cc(-c3cnc4ccc(C(F)F)nn34)ncn2)C1 (stereo not drawn) [II-222, 1-(3-(6-(6-(Difluoromethyl)imidazo[12-b]pyridazin-3-yl)pyrimidin-4-yl)piperidin-1-yl)ethan-1-one]",10 to 1000 nM,500 to 5000 nM
"CC(=O)N1CCN(c2cc(-c3cnc4ccc(C(F)(F)F)nn34)ccn2)CC1 [II-223, 1-(4-(4-(6-(Trifluoromethyl)imidazo[1,2-b]pyridazin-3-yl)pyridin-2-yl)piperazin-1-yl)ethanone]",10 to 1000 nM,> 5000 nM
"CS(=O)(=O)NC[C@@H]1CN(c2cc(-c3cnc4ccc(C(F)(F)F)nn34)ccn2)CCO1 [II-224, (S)—N-((4-(4-(6-(Trifluoromethyl)imidazo[1,2-b]pyridazin-3-yl)pyridin-2-yl)morpholin-2-yl)methyl)methanesulfonamide]",10 to 1000 nM,500 to 5000 nM
"FC(F)(F)c1ccc2ncc(-c3ccnc(N4CCOC(c5cn[nH]c5)C4)c3)n2n1 (stereo not drawn) [II-225, 2-(1H-Pyrazol-4-yl)-4-(4-(6-(trifluoromethyl)imidazo[1,2-b]pyridazin-3-yl)pyridin-2-yl)morpholine]",< 10 nM,< 500 nM
"O=C1OC2(CC2)[C@@H]2CN(c3cc(-c4cnc5ccc(C(F)(F)F)nn45)ccn3)CCN12 [II-226, (S)-7′-(4-(6-(Trifluoromethyl)imidazo[1,2-b]pyridazin-3-yl)pyridin-2-yl)tetrahydrospiro[cyclopropane-1,1′-oxazolo[3,4-a]pyrazin]-3′(5′H)-one]",10 to 1000 nM,500 to 5000 nM
"CS(=O)(=O)CC1CCCN(c2cc(-c3cnc4ccc(C(F)(F)F)nn34)ccn2)C1 (stereo not drawn) [II-227, 3-(2-(3-((Methylsulfonyl)methyl)piperidin-1-yl)pyridin-4-yl)-6-(trifluoromethyl)imidazo[1,2-b]pyridazine]",10 to 1000 nM,> 5000 nM
"CS(=O)(=O)C1CCCN(c2cc(-c3cnc4ccc(C(F)(F)F)nn34)ccn2)C1 (stereo not drawn) [II-228, 3-(2-(3-(Methylsulfonyl)piperidin-1-yl)pyridin-4-yl)-6-(trifluoromethyl)imidazo[1,2-b]pyridazine]",10 to 1000 nM,> 5000 nM
"CS(=O)(=O)NC1CCCN(c2cc(-c3cnc4ccc(C(F)(F)F)nn34)ccn2)C1 (stereo not drawn) [II-231, N-(1-(4-(6-(Trifluoromethyl)imidazo[1,2-b]pyridazin-3-yl)pyridin-2-yl)piperidin-3-yl)methanesulfonamide]",10 to 1000 nM,500 to 5000 nM
"CS(=O)(=O)NCC1COCCN(c2cc(-c3cnc4ccc(C(F)(F)F)nn34)ccn2)C1 (stereo not drawn) [II-232, N-((4-(4-(6-(Trifluoromethyl)imidazo[1,2-b]pyridazin-3-yl)pyridin-2-yl)-1,4-oxazepan-6-yl)methyl)methanesulfonamide]",10 to 1000 nM,500 to 5000 nM
"C[C@H]1CO[C@@H](CNS(C)(=O)=O)CN1c1cc(-c2cnc3ccc(C(F)F)nn23)ncn1 [II-234, N-(((2R,5S)-4-(6-(6-(difluoromethyl)imidazo[1,2-b]pyridazin-3-yl)pyrimidin-4-yl)-5-methylmorpholin-2-yl)methyl)methanesulfonamide]",10 to 1000 nM,500 to 5000 nM
"CN(CC1CC(O)CN(c2cc(-c3cnc4ccc(C(F)F)nn34)ncn2)C1)S(C)(=O)=O (stereo not drawn) [II-235, N-((1-(6-(6-(Difluoromethyl)imidazo[1,2-b]pyridazin-3-yl)pyrimidin-4-yl)-5-hydroxypiperidin-3-yl)methyl)-N-methylmethanesulfonamide]",10 to 1000 nM,500 to 5000 nM
"C[C@H]1CN(c2cc(-c3cnc4ccc(C(F)F)nn34)ncn2)C[C@@H]1CNS(C)(=O)=O [II-237, N-(((3R,4R)-1-(6-(6-(Difluoromethyl)imidazo[1,2-b]pyridazin-3-yl)pyrimidin-4-yl)-4-methylpyrrolidin-3-yl)methyl)methanesulfonamide]",< 10 nM,500 to 5000 nM
"CC1CN(c2cc(-c3cnc4ccc(C(F)F)nn34)ncn2)CC1CNS(C)(=O)=O (stereo not drawn) [II-238, N-((1-(6-(6-(Difluoromethyl)imidazo[1,2-b]pyridazin-3-yl)pyrimidin-4-yl)-4-methylpyrrolidin-3-yl)methyl)methanesulfonamide]",10 to 1000 nM,500 to 5000 nM

# Other lines, results leading:
Ki [1],IC50 [2],Structure (SMILES)
< 10 nM,500 to 5000 nM,"CC1(O)CCN(c2cc(-c3cnc4ccc(C(F)F)nn34)ncn2)CC1CNS(C)(=O)=O (stereo not drawn) [II-239, N-((1-(6-(6-(Difluoromethyl)imidazo[1,2-b]pyridazin-3-yl)pyrimidin-4-yl)-4-hydroxy-4-methylpiperidin-3-yl)methyl)methanesulfonamide]"
< 10 nM,< 500 nM,"CC1(O)CCN(c2cc(-c3cnc4ccc(C(F)F)nn34)ncn2)CC1CNS(C)(=O)=O (stereo not drawn) [II-240, N-((1-(6-(6-(Difluoromethyl)imidazo[1,2-b]pyridazin-3-yl)pyrimidin-4-yl)-4-hydroxy-4-methylpiperidin-3-yl)methyl)methanesulfonamide]"
10 to 1000 nM,500 to 5000 nM,"CC1C(CNS(C)(=O)=O)CCN1c1cc(-c2cnc3ccc(C(F)F)nn23)ncn1 (stereo not drawn) [II-243, N-((1-(6-(6-(Difluoromethyl)imidazo[1,2-b]pyridazin-3-yl)pyrimidin-4-yl)-2-methylpyrrolidin-3-yl)methyl)methanesulfonamide]"
10 to 1000 nM,> 5000 nM,"CC1C(CNS(C)(=O)=O)CCN1c1cc(-c2cnc3ccc(C(F)F)nn23)ncn1 (stereo not drawn) [II-244, N-((1-(6-(6-(Difluoromethyl)imidazo[1,2-b]pyridazin-3-yl)pyrimidin-4-yl)-2-methylpyrrolidin-3-yl)methyl)methanesulfonamide]"
10 to 1000 nM,> 5000 nM,"CC1CCC(CNS(C)(=O)=O)CN1c1cc(-c2cnc3ccc(C(F)F)nn23)ncn1 (stereo not drawn) [II-245, N-((1-(6-(6-(Difluoromethyl)imidazo[1,2-b]pyridazin-3-yl)pyrimidin-4-yl)-6-methylpiperidin-3-yl)methyl)methanesulfonamide]"
10 to 1000 nM,> 5000 nM,"CC1CCC(CNS(C)(=O)=O)CN1c1cc(-c2cnc3ccc(C(F)F)nn23)ncn1 (stereo not drawn) [II-246, N-((1-(6-(6-(Difluoromethyl)imidazo[1,2-b]pyridazin-3-yl)pyrimidin-4-yl)-6-methylpiperidin-3-yl)methyl)methanesulfonamide]"
< 10 nM,< 500 nM,"C[C@@H]1CC[C@H](CNS(C)(=O)=O)CN1c1cc(-c2cnc3ccc(C(F)F)nn23)ncn1 [II-247, N-(((3S,6R)-1-(6-(6-(Difluoromethyl)imidazo[1,2-b]pyridazin-3-yl)pyrimidin-4-yl)-6-methylpiperidin-3-yl)methyl)methanesulfonamide]"
10 to 1000 nM,500 to 5000 nM,"CC1CCC(CNS(C)(=O)=O)CN1c1cc(-c2cnc3ccc(C(F)F)nn23)ncn1 (stereo not drawn) [II-248, N-((1-(6-(6-(Difluoromethyl)imidazo[1,2-b]pyridazin-3-yl)pyrimidin-4-yl)-6-methylpiperidin-3-yl)methyl)methanesulfonamide]"
10 to 1000 nM,500 to 5000 nM,"CS(=O)(=O)NC[C@@H]1CN(c2cc(-c3cnc4ccc(C5CC5)nn34)ncn2)CCO1 [II-249, (S)—N-((4-(6-(6-Cyclopropylimidazo[1,2-b]pyridazin-3-yl)pyrimidin-4-yl)morpholin-2-yl)methyl)methanesulfonamide]"
10 to 1000 nM,> 5000 nM,"CS(=O)(=O)N1CCC(c2cc(-c3cnc4ccc(C(F)F)nn34)ncn2)C1 (stereo not drawn) [II-250, 6-(Difluoromethyl)-3-(6-(1-(methylsulfonyl)pyrrolidin-3-yl)pyrimidin-4-yl)imidazo[1,2-b]pyridazine]"
10 to 1000 nM,> 5000 nM,"FC(F)c1ccc2ncc(-c3cc(N4CCOCC4)ncn3)n2n1 [II-251, 4-(6-(6-(Difluoromethyl)imidazo[1,2-b]pyridazin-3-yl)pyrimidin-4-yl)morpholine]"
